Laboratory results reported in ChEMBL document CHEMBL1201862, “PubChem BioAssay data set” (2004).
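Assay format: 96-well plates, 48-hour exposure. GI50 marks 50% less growth.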 Activity calls are given as the source filed them. Cut-off read from the data, not from the text of the source: active = GI50 up to about 1.1 µM and inactive = higher.

Tests used:
Test in all cases: inhibition of tumour cell growth, NCI panel, 48 h
[1] = test system: SK-OV-3
[2] = test system: HL-60
[3] = test system: HCT-116
[4] = test system: IGROV-1
[5] = test system: OVCAR-4
[6] = test system: NCI-H23
[7] = test system: EKVX
[8] = test system: M14
[9] = test system: SNB-19
[10] = test system: UO-31
[11] = test system: K562
[12] = test system: A549
[13] = test system: UACC-62
[14] = test system: MDA-N
[15] = test system: A498
[16] = test system: HCC 2998
[17] = test system: MDA-MB-435
[18] = test system: KM12
[19] = test system: SK-MEL-5
[20] = test system: DU-145
[21] = test system: SF-268
[22] = test system: NCI/ADR-RES
[23] = test system: NCI-H522
[24] = test system: SW-620
[25] = test system: NCI-H226
[26] = test system: Malme-3M
[27] = test system: SF-539
[28] = test system: SK-MEL-2
[29] = test system: MCF7
[30] = test system: OVCAR-5
[31] = test system: MDA-MB-231
[32] = test system: BT-549
[33] = test system: CCRF-CEM
[34] = test system: HT-29
[35] = test system: UACC-257
[36] = test system: Hs-578T
[37] = test system: HOP-62
[38] = test system: SK-MEL-28
[39] = test system: NCI-H460
[40] = test system: ACHN
[41] = test system: U-251
[42] = test system: SF-295
[43] = test system: SN12C
[44] = test system: LOX IMVI
[45] = test system: CAKI-1
[46] = test system: MOLT-4
[47] = test system: COLO 205
[48] = test system: TK-10
[49] = test system: RXF 393
[50] = test system: 786-0
[51] = test system: PC-3
[52] = test system: SNB-75
[53] = test system: OVCAR-3
[54] = test system: OVCAR-8
[55] = test system: RPMI-8226
[56] = test system: HOP-92
[57] = test system: HCT-15
[58] = test system: T47D
[59] = test system: SR

CC1(C)Cc2nc3c(cc2C(=O)C1/C=N/C(C#N)=C(\N)C#N)C(=O)C(/C=N/C(C#N)=C(\N)C#N)C(C)(C)C3 (stereo not drawn)
GI50 [1]: 3020 nM (inactive) | GI50 [2]: 2040 nM (inactive) | GI50 [3]: 1540 nM (inactive) | GI50 [4]: 1520 nM (inactive) | GI50 [5]: 4040 nM (inactive) | GI50 [6]: 2710 nM (inactive) | GI50 [7]: 2030 nM (inactive) | GI50 [8]: 1670 nM (inactive) | GI50 [9]: 4680 nM (inactive) | GI50 [10]: 1840 nM (inactive) | GI50 [11]: 3050 nM (inactive) | GI50 [12]: 2600 nM (inactive) | GI50 [13]: 1830 nM (inactive) | GI50 [14]: 2410 nM (inactive) | GI50 [15]: 4170 nM (inactive) | GI50 [16]: 4520 nM (inactive) | GI50 [17]: 2080 nM (inactive) | GI50 [18]: 1770 nM (inactive) | GI50 [19]: 2000 nM (inactive) | GI50 [20]: 2300 nM (inactive) | GI50 [21]: 1640 nM (inactive) | GI50 [22]: 6470 nM (inactive) | GI50 [23]: 705 nM (active) | GI50 [24]: 2570 nM (inactive) | GI50 [25]: 2840 nM (inactive) | GI50 [26]: 1520 nM (inactive) | GI50 [27]: 1180 nM (inactive) | GI50 [28]: 2200 nM (inactive) | GI50 [29]: 2150 nM (inactive) | GI50 [30]: 2340 nM (inactive) | GI50 [31]: 2820 nM (inactive) | GI50 [32]: 2190 nM (inactive) | GI50 [33]: 2390 nM (inactive) | GI50 [34]: 2540 nM (inactive) | GI50 [35]: 2510 nM (inactive) | GI50 [36]: 916 nM (active) | GI50 [37]: 2330 nM (inactive) | GI50 [38]: 1980 nM (inactive) | GI50 [39]: 2610 nM (inactive) | GI50 [40]: 2280 nM (inactive) | GI50 [41]: 2040 nM (inactive) | GI50 [42]: 2540 nM (inactive) | GI50 [43]: 2060 nM (inactive) | GI50 [44]: 2090 nM (inactive) | GI50 [45]: 1650 nM (inactive) | GI50 [46]: 2370 nM (inactive) | GI50 [47]: 2540 nM (inactive) | GI50 [48]: 4800 nM (inactive) | GI50 [49]: 1680 nM (inactive) | GI50 [50]: 1840 nM (inactive) | GI50 [51]: 1990 nM (inactive) | GI50 [52]: 1660 nM (inactive) | GI50 [53]: 2770 nM (inactive) | GI50 [54]: 2360 nM (inactive) | GI50 [55]: 2740 nM (inactive) | GI50 [56]: 1700 nM (inactive) | GI50 [57]: 2360 nM | GI50 [58]: 1320 nM (inactive) | GI50 [59]: 3080 nM (inactive)

CCC/C(Cl)=N/OC(=O)Nc1cc(C(F)(F)F)ccc1OC
GI50 [1]: 6170 nM (inactive) | GI50 [2]: 1770 nM (inactive) | GI50 [3]: 9890 nM (inactive) | GI50 [4]: 16600 nM (inactive) | GI50 [5]: 3230 nM (inactive) | GI50 [6]: 18700 nM (inactive) | GI50 [7]: 7240 nM (inactive) | GI50 [8]: 4400 nM (inactive) | GI50 [9]: 17600 nM (inactive) | GI50 [10]: 16400 nM (inactive) | GI50 [11]: 1790 nM (inactive) | GI50 [12]: 19500 nM (inactive) | GI50 [13]: 15200 nM (inactive) | GI50 [14]: 12100 nM (inactive) | GI50 [15]: 15100 nM (inactive) | GI50 [16]: 16900 nM (inactive) | GI50 [17]: 13400 nM (inactive) | GI50 [18]: 18100 nM (inactive) | GI50 [19]: 7930 nM (inactive) | GI50 [20]: 16300 nM (inactive) | GI50 [21]: 16100 nM (inactive) | GI50 [22]: 17500 nM (inactive) | GI50 [23]: 1560 nM (inactive) | GI50 [24]: 3550 nM (inactive) | GI50 [25]: 15500 nM (inactive) | GI50 [26]: 2920 nM (inactive) | GI50 [27]: 15300 nM (inactive) | GI50 [28]: 16100 nM (inactive) | GI50 [29]: 12400 nM (inactive) | GI50 [30]: 17600 nM (inactive) | GI50 [31]: 13100 nM (inactive) | GI50 [32]: 15500 nM (inactive) | GI50 [33]: 1910 nM (inactive) | GI50 [34]: 20700 nM (inactive) | GI50 [35]: 16500 nM (inactive) | GI50 [36]: 27100 nM (inactive) | GI50 [37]: 18100 nM (inactive) | GI50 [38]: 14500 nM (inactive) | GI50 [39]: 19500 nM (inactive) | GI50 [40]: 13200 nM (inactive) | GI50 [41]: 17700 nM (inactive) | GI50 [42]: 18300 nM (inactive) | GI50 [43]: 14300 nM (inactive) | GI50 [44]: 4460 nM (inactive) | GI50 [45]: 4780 nM (inactive) | GI50 [46]: 2100 nM (inactive) | GI50 [47]: 1950 nM (inactive) | GI50 [48]: 18500 nM (inactive) | GI50 [49]: 6310 nM (inactive) | GI50 [50]: 6050 nM (inactive) | GI50 [51]: 16200 nM (inactive) | GI50 [52]: 15100 nM (inactive) | GI50 [53]: 16400 nM (inactive) | GI50 [54]: 16100 nM (inactive) | GI50 [55]: 2330 nM (inactive) | GI50 [56]: 2430 nM (inactive) | GI50 [57]: 5310 nM | GI50 [58]: 6440 nM (inactive) | GI50 [59]: 2790 nM (inactive)
